Active and inactive are the calls of the source.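 The calls were made as follows: active = compounds whose fitted concentration for half-maximal reporter inhibition is 10 µM or lower; inactive = the rest.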

COUP transcription factor 2 (Homo sapiens), sequence (P24468 whole entry, looked up): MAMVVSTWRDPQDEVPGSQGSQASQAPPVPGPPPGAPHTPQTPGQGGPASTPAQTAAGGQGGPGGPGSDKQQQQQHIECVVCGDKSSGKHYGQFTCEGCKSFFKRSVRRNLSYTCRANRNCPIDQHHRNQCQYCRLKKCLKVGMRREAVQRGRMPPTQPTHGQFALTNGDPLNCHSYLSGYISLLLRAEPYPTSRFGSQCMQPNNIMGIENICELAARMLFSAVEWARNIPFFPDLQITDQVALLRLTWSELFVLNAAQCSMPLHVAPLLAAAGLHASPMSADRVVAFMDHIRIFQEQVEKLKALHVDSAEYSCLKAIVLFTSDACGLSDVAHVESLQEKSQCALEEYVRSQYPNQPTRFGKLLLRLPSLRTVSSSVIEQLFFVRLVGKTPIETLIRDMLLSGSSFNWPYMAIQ

The assay addresses COUP transcription factor 2 (Homo sapiens) (UniProt P24468). The assay can be described thus: COUP-TFII reporter suppression IC50 – cell-based, luciferase reporter, HEK293, powder samples, round 000, late-stage follow-up (AID 743284). The conditions noted are these: HEK293 NGFI-A luciferase reporter, luminescence. On the technique in general: Reporter assays use an easily measured gene product as a stand-in for the process of interest.
As to `COc1ccc(CCNc2ncnc3sccc23)cc1OC`, the half-inhibitory concentration (IC50) was 1.79 µM. Next, `O=S(=O)(NCC1CCCO1)c1ccc(-c2ccc(S(=O)(=O)NCC3CCCO3)cc2)cc1` (stereo not drawn): 1.87 µM; `Cc1nn(C)c(C)c1CN(C)S(=O)(=O)c1ccc2ccccc2c1`: 3.27 µM; `Cc1cc(-n2c(C)cc(C(=O)CSc3ncnc4ccccc34)c2C)no1`: 6.99 µM. To `Cc1ccc(S(=O)(=O)CC2CSc3nc4ccccc4n32)cc1` (stereo not drawn) belongs 4.16 µM; to `Cc1sc2ncnc(NCCc3ccc(S(N)(=O)=O)cc3)c2c1C`, 5.74 µM. To `CCOc1cc(S(=O)(=O)NCc2ccncc2)ccc1Cl` belongs 2.06 µM; to `CC(=O)Nc1ccccc1OCC(=O)c1cc(C)n(Cc2cccs2)c1C`, 0.586 µM; to `CC(Nc1ncnc2ccccc12)c1ccccc1` (stereo not drawn), 4.97 µM. For `O=C(Nc1ccncc1)c1ccc(Cl)c(S(=O)(=O)N2CCc3ccccc32)c1`, the half-maximal inhibitory concentration (IC50) was 3.86 µM. Next, `CCC1CCCCN1C(=O)c1cc(COc2ccc3ncccc3c2)on1` (stereo not drawn): 3.33 µM; `CCOC(=O)C1CCCN(S(=O)(=O)c2ccc(S(=O)(=O)N(CC)CC)cc2)C1` (stereo not drawn): 3.02 µM. To `COc1ccc(NS(=O)(=O)c2cccc(NC(=O)c3ccc(Cl)nc3)c2)cc1` belongs 3.46 µM; to `CC1Cc2cc(-c3csc(NC(=O)Cc4cccs4)n3)ccc2N1S(C)(=O)=O` (stereo not drawn), 2.3 µM; to `Cc1sc2ncnc(NCC3COc4ccccc4O3)c2c1C` (stereo not drawn), 3.27 µM. For `Cc1oc(-c2ccc(Cl)cc2)nc1CS(=O)CC(=O)NCCCN1CCN(Cc2ccccc2)CC1` (stereo not drawn), the half-maximal inhibitory concentration (IC50) is 6.24 µM. Next, `Cc1cc(-n2nc3ccccc3n2)c2oc(SCC(=O)NC(C)(C)C)nc2c1`: “inactive”.

In the case of `Cc1cc(C)c(S(=O)(=O)NCc2ccncc2)c(C)c1`, the IC50 is 5.42 µM. To `CCN(CC)S(=O)(=O)c1cccc(NC(=O)CNc2cccc(S(=O)(=O)N3CCCC3)c2)c1` belongs 3.99 µM; to `COc1ccc(NS(=O)(=O)c2ccc(-c3coc(C)n3)cc2)cc1OC`, 5.73 µM; to `Cn1nccc1C(=O)NC1CCCc2c1cnn2-c1ccc(C(C)(C)C)cc1` (stereo not drawn), 1.38 µM. As to `COc1ccc(C2=Nn3c([n+](C)c4ccccc43)SC2)cc1`, the IC50 is 4.8 µM. Next, `COc1ccc(OC)c(CCNC(=O)Cn2nc(C)c3c(C)n(-c4ccc(C)cc4)nc3c2=O)c1`: 3.14 µM. Next, `COc1ccc(CCNc2ncnc3sc(C)cc23)cc1OC`: 1.49 µM. `Cc1ccc(OCCN2CCN(c3ncnc4sc(C)c(C)c34)CC2)cc1`: the IC50 was 3.43 µM. Next, `CN(CC1CCCO1)S(=O)(=O)c1ccc(C(=O)Nc2nc3cc4c(cc3s2)OCO4)cc1` (stereo not drawn): 1.99 µM; `COc1ccc(CN(C)c2ccc(S(=O)(=O)N3CCN(C)CC3)cc2[N+](=O)[O-])cc1OC`: 2.76 µM; `CCOC(=O)N1CCN(C(=O)CSCC(=O)Nc2nc(-c3ccc(-c4ccccc4)cc3)cs2)CC1`: 2.91 µM.

By IC50 is commonly meant the point on the concentration scale where inhibition reaches its midpoint.
